Literature values in patent US20110130355A1, “USE OF SOPHORICOSIDE IN THE MANUFACTURE OF MEDICAMENTS” (priority 2008, published 2011).
Read-outs that look alike come from different tables or passages of the source.

Key:
[1] = test system: rabbit articular chondrocytes; settings: cited from earlier work
[2] = test system: femoral-metaphyseal tissues; settings: in vitro, tissues from aging female rats; cited from earlier work
ovariectomized rats = settings: cited from earlier work

Row | Compound | degradation of proteoglycan induced by interleukin (IL) 1β ([1]; high concentration, 10 nmol/l) | degradation of proteoglycan induced by interleukin (IL) 1β ([1]; low concentration, 0.1 nmol/l) | contents of alkaline phosphatase, DNA and calcium in the femoral-metaphyseal tissues [2] | loss of bone mass (ovariectomized rats)
1 | C[C@]12CC[C@@H]3c4ccc(O)cc4CC[C@H]3[C@@H]1CC[C@@H]2O [17β-estradiol] | increased its effect | inhibited the degradation of proteoglycan induced by interleukin (IL) 1β |  | 
2 | O=c1c(-c2ccc(O)cc2)coc2cc(O)cc(O)c12 [genistein] |  |  | substantially increases | 
3 | O=c1c(-c2ccc(O)cc2)coc2cc(O[C@@H]3O[C@H](CO)[C@@H](O)[C@H](O)[C@H]3O)cc(O)c12 [genistin, genistein-7-O-glucopyranoside] |  |  | substantially increases | prevent loss of bone mass
